Assay: Dynamic vapor sorption (DVS) adsorption/desorption
Format: physicochemical
Conditions: up to 95% RH; isothermal at 25° C.; water as solvent
Procedure: The Adsorption/Desorption determination was performed using a Q5000 V3.3 TGA-SA instrument. […] The ramp was isothermal at 25° C. Water was used as the solvent for all DVS analysis. The data was analyzed with the Universal Analysis 2000 software.

## Fc1ccccc1Cc1nc(-c2nc(C(F)(F)F)n[nH]2)cn2ccnc12 [Form A, 8-(2-fluorobenzyl)-6-(3-(trifluoromethyl)-1H-1,2,4-triazol-5-yl)imidazo[1,2-a]pyrazine]
  moisture picked up (DVS): less than 0.4%

Source: patent US12122782B2, “Crystalline forms of 8-(2-fluorobenzyl)-6-(3-(trifluoromethyl)-1H-1,2,4-triazol-5-yl)imidazo[1,2-a]pyrazine as sGC stimulators” (Tisento Therapeutics Inc., priority 2018, dated 2024)
